According to ChEMBL document CHEMBL6087435, “Prodrugging fungicidal amphotericin B significantly decreases its toxic effects” (Eur J Med Chem, 2025):
Converted amounts (≈) assume the structure as drawn. The source made the active and inactive calls. The calls are words filed in the database; no cut-off is given here.

Tests used:
Aspergillus fumigatus [1] = assay: Antifungal activity against Aspergillus fumigatus ATCC204305 infected in Galleria mellonella larvae assessed as increase in larval survival at 15 mg/kg measured after 6 days; assay type: functional, organism-based; conditions: time 6.0 day
[2] = Toxicity in human HEK293 cells assessed as effect on polymerized actin pattern at 50 uM incubated for 24 hrs by phalloidin conjugated AlexaFluor-488 staining based confocal microscopic analysis; assay type: cell-based; conditions: hek293, 24 h
[3] = Toxicity in human HEK293 cells assessed as reduction in cell confluency at 50 uM incubated for 24 hrs by mitotracker red staining based confocal microscopic analysis; parameters: scale not given: the % may be the effect or the level left; conditions: hek293, 24 h
[4] = Toxicity in human HEK293 cells assessed as effect on mitochondrial morphology at 50 uM incubated for 24 hrs by mitotracker red staining based confocal microscopic analysis; assay type: cell-based; conditions: hek293, 24 h
[5] = Stability in PBS at pH 7.4 assessed as half life by HPLC analysis; assay type: physicochemical
HEK293 [6] = assay: Cytotoxicity against human HEK293 cells at 6.25 to 12.5 uM incubated for 24 hrs by Hoechst 33258 staining based flow cytometry; assay type: toxicity, cell-based; conditions: hek293, 24 h, dose 6.25-12.5 µM
Aspergillus fumigatus [7] = assay: Antifungal activity against Aspergillus fumigatus ATCC204305 infected in Galleria mellonella larvae assessed as larval survival at 15 mg/kg measured after 6 days; assay type: functional; conditions: time 6 day
Candida albicans [8] = assay: Antifungal activity against Candida albicans ATCC90028 infected in Galleria mellonella larvae assessed as increase in larval survival at 15 mg/kg measured after 6 days; assay type: functional, organism-based; conditions: time 6.0 day
Aspergillus fumigatus [9] = assay: Antifungal activity against Aspergillus fumigatus assessed as inhibition of fungal growth by serial dilution assay; assay type: functional
[10] = Cytotoxicity against human HEK293 cells assessed as cell viability at 100 uM incubated for 24 hrs by Hoechst 33258 staining based flow cytometry; assay type: toxicity; conditions: read-out: Activity
[11] = Toxicity in Galleria mellonella larvae assessed as effect on survival at 15 mg/kg measured for 144 hrs; assay type: organism-based; conditions: in vivo
[12] = Toxicity in human HEK293 cells assessed as effect on cell viability at 50 uM incubated for 24 hrs by confocal microscopic analysis; assay type: cell-based; conditions: hek293, 24 h
[13] = Stability in human plasma in PBS at pH 7.4 assessed as half life by HPLC analysis; assay type: ADME, cell-free
HEK293 [14] = assay: Cytotoxicity against human HEK293 cells at 12.5 uM incubated for 24 hrs by Hoechst 33258 staining based flow cytometry; assay type: toxicity, cell-based; conditions: hek293, 24 h
Candida albicans [15] = assay: Antifungal activity against Candida albicans ATCC90028 infected in Galleria mellonella larvae assessed as larval survival at 15 mg/kg measured after 6 days; assay type: functional; conditions: time 6 day
[16] = Toxicity in human HEK293 cells assessed as effect on polymerized actin signal at 50 uM incubated for 24 hrs by phalloidin conjugated AlexaFluor-488 staining based confocal microscopic analysis; assay type: cell-based; conditions: hek293, 24 h
[17] = Toxicity in human HEK293 cells assessed as reduction in cell viability at 50 uM incubated for 24 hrs by mitotracker red staining based confocal microscopic analysis; conditions: hek293, 24 h
HEK293 [18] = assay: Cytotoxicity against human HEK293 cells at 6.25 to 100 uM incubated for 24 hrs by Hoechst 33258 staining based flow cytometry; assay type: toxicity, cell-based; conditions: hek293, 24 h, dose 6.25-100 µM
Candida albicans [19] = assay: Antifungal activity against Candida albicans assessed as inhibition of fungal growth by serial dilution assay; assay type: functional
Candida albicans [20] = assay: Antifungal activity against Candida albicans ATCC90028 infected in Galleria mellonella larvae assessed as larval survival at 15 mg/kg measured after 72 hrs; assay type: functional
Candida albicans [21] = assay: Antifungal activity against Candida albicans K1 assessed as inhibition of fungal growth; assay type: functional
[22] = Toxicity in Galleria mellonella larvae assessed as larvae death at 15 mg/kg measured for 144 hrs; assay type: organism-based; conditions: in vivo
[23] = Toxicity in human HEK293 cells assessed as effect on cell physiology at 6.25 uM incubated for 24 hrs by confocal microscopic analysis; assay type: cell-based; conditions: hek293, 24 h
[24] = Toxicity in human HEK293 cells assessed as effect on cell morphology at 6.25 uM incubated for 24 hrs by confocal microscopic analysis; assay type: cell-based; conditions: hek293, 24 h
[25] = Toxicity in human HEK293 cells assessed as effect on adherent cells at 6.25 uM incubated for 24 hrs by confocal microscopic analysis; assay type: cell-based; conditions: hek293, 24 h
Candida albicans [26] = assay: Antifungal activity against Candida albicans SN250 assessed as inhibition of fungal growth by broth dilution assay; assay type: functional

Row | Structure (SMILES) | Activity (Aspergillus fumigatus [1]) | Activity [3] | half-life [5] [h] | Activity (HEK293 [6]) | Activity (Candida albicans [8]) | MIC90 (Aspergillus fumigatus [9]) [µg/mL] | viability at 24 h, 100 µM [10] [%] | Activity [11] | half-life [13] [h] | Activity (HEK293 [14]) | Activity (Candida albicans [15]) [%] | further results
1 | CCOC(=O)[C@H](C)OP(=O)(OCC)Oc1ccc(COC(=O)N[C@@H]2[C@H](O)[C@H](O[C@H]3/C=C/C=C/C=C/C=C/C=C/C=C/C=C/[C@H](C)[C@@H](O)[C@@H](C)[C@H](C)OC(=O)C[C@H](O)C[C@H](O)CC[C@@H](O)[C@H](O)C[C@H](O)C[C@]4(O)C[C@H](O)[C@@H](C(=O)O)[C@H](C3)O4)O[C@H](C)[C@H]2O)cc1 (stereo partly drawn) | Active | ~ 50% | 18 | Toxic | Active | > 16 | ~78 | Non-toxic | 4.5 | Toxic | 10 | Activity [2]: Non-toxic; Activity [4]: Non-toxic; Activity (Aspergillus fumigatus [7]): 40%; Activity [12]: Non-toxic; Activity [16]: Non-toxic
2 | CCOC(=O)[C@H](C)OP(=O)(OCC)Oc1ccc(COC(=O)OCOC(=O)[C@H]2[C@@H]3C[C@@H](O[C@@H]4O[C@H](C)[C@@H](O)[C@H](N)[C@@H]4O)/C=C/C=C/C=C/C=C/C=C/C=C/C=C/[C@H](C)[C@@H](O)[C@@H](C)[C@H](C)OC(=O)C[C@H](O)C[C@H](O)CC[C@@H](O)[C@H](O)C[C@H](O)C[C@](O)(C[C@@H]2O)O3)cc1 (stereo partly drawn) | Active | – | 2.8 | Toxic | Active | 2 (≈ 1.52 µM) | – | Non-toxic | 2.2 | Toxic | 40 | Activity [17]: Toxic; Activity (HEK293 [18]): Toxic; MIC90 (Candida albicans [19]): 2 µg/mL (≈ 1.52 µM); Activity (Candida albicans [20]): 70%
3 | C[C@@H]1[C@H](O)[C@@H](C)/C=C/C=C/C=C/C=C/C=C/C=C/C=C/[C@H](O[C@@H]2O[C@H](C)[C@@H](O)[C@H](N)[C@@H]2O)C[C@@H]2O[C@](O)(C[C@@H](O)C[C@@H](O)[C@H](O)CC[C@@H](O)C[C@@H](O)CC(=O)O[C@H]1C)C[C@H](O)[C@H]2NC(=O)NCCN | – | – | – | – | – | – | – | – | – | – | – | MIC (Candida albicans [21]): 500 µg/mL (≈ 510 µM)
4 | CCOP(=O)(OCCOC(C)=O)Oc1ccc(COC(=O)N[C@@H]2[C@H](O)[C@H](O[C@H]3/C=C/C=C/C=C/C=C/C=C/C=C/C=C/[C@H](C)[C@@H](O)[C@@H](C)[C@H](C)OC(=O)C[C@H](O)C[C@H](O)CC[C@@H](O)[C@H](O)C[C@H](O)C[C@]4(O)C[C@H](O)[C@@H](C(=O)O)[C@H](C3)O4)O[C@H](C)[C@H]2O)cc1 (stereo partly drawn) | Active | ~ 50% | 35 | Toxic | Active | > 16 | ~86 | Non-toxic | 1.3 | Toxic | 10 | Activity [2]: Non-toxic; Activity [4]: Non-toxic; Activity [22]: Toxic; Activity [12]: Non-toxic; Activity [16]: Non-toxic
5 | C[C@@H]1[C@H](O)[C@@H](C)/C=C/C=C/C=C/C=C/C=C/C=C/C=C/[C@H](O[C@@H]2O[C@H](C)[C@@H](O)[C@H](N)[C@@H]2O)C[C@@H]2O[C@](O)(C[C@@H](O)C[C@@H](O)[C@H](O)CC[C@@H](O)C[C@@H](O)CC(=O)O[C@H]1C)C[C@H](O)[C@H]2C(=O)O [AMPHOTERICIN B] | – | – | – | – | – | – | 0 | – | – | – | – | Activity [23]: Toxic; Activity [24]: Toxic; Activity [25]: Toxic
6 | CC(C)OC(=O)OCOC(=O)[C@H]1[C@@H]2C[C@@H](O[C@@H]3O[C@H](C)[C@@H](O)[C@H](N)[C@@H]3O)/C=C/C=C/C=C/C=C/C=C/C=C/C=C/[C@H](C)[C@@H](O)[C@@H](C)[C@H](C)OC(=O)C[C@H](O)C[C@H](O)CC[C@@H](O)[C@H](O)C[C@H](O)C[C@](O)(C[C@@H]1O)O2 | Active | ~ 10% | 7.6 | Toxic | Active | > 16 | – | Non-toxic | 3.3 | Toxic | 10 | Activity (HEK293 [18]): Non-toxic; MIC90 (Candida albicans [19]): 2 µg/mL (≈ 1.92 µM)
7 | C[C@@H]1[C@H](O)[C@@H](C)/C=C/C=C/C=C/C=C/C=C/C=C/C=C/[C@H](O[C@@H]2O[C@H](C)[C@@H](O)[C@H](N)[C@@H]2O)C[C@@H]2O[C@](O)(C[C@@H](O)C[C@@H](O)[C@H](O)CC[C@@H](O)C[C@@H](O)CC(=O)O[C@H]1C)C[C@H](O)[C@H]2NC(=O)C(CO)CO | – | – | – | – | – | – | – | – | – | – | – | MIC (Candida albicans [26]): 120 µg/mL (≈ 120 µM)
